ChEMBL document CHEMBL1146418, “A new flavone C-glycoside and antiplatelet and vasorelaxing flavones from Gentiana arisanensis” (J Nat Prod, 1997)
pIC50: −log10 of the molar value.

Experiments:
[1] = test system: Platelet; assay: Inhibition of thrombin-induced platelet aggregation in rabbit plasma at 300 uM preincubated 3 mins before addition of thrombin by turbidimetric method; assay type: functional, Oryctolagus cuniculus; set-up: scale not given: the % may be the effect or the level left
[2] = test system: Platelet; assay: Inhibition of arachidonic acid-induced platelet aggregation in rabbit plasma at 300 uM preincubated 3 mins before addition of thrombin by turbidimetric method; assay type: functional, Oryctolagus cuniculus; set-up: scale not given: the % may be the effect or the level left
[3] = test system: Platelet; assay: Inhibition of collagen-induced platelet aggregation in rabbit plasma at 300 uM preincubated 3 mins before addition of thrombin by turbidimetric method; assay type: functional, Oryctolagus cuniculus; set-up: scale not given: the % may be the effect or the level left
[4] = test system: Platelet; assay: Inhibition of platelet activating factor-induced platelet aggregation in rabbit plasma at 300 uM preincubated 3 mins before addition of thrombin by turbidimetric method; assay type: functional, Oryctolagus cuniculus; set-up: scale not given: the % may be the effect or the level left
[5] = test system: Platelet; assay: Inhibition of arachidonic acid-induced platelet aggregation in rabbit plasma at 100 uM preincubated 3 mins before addition of thrombin by turbidimetric method; assay type: functional, Oryctolagus cuniculus; set-up: scale not given: the % may be the effect or the level left
[6] = test system: Platelet; assay: Inhibition of collagen-induced platelet aggregation in rabbit plasma at 100 uM preincubated 3 mins before addition of thrombin by turbidimetric method; assay type: functional, Oryctolagus cuniculus; set-up: scale not given: the % may be the effect or the level left
[7] = test system: Platelet; assay: Inhibition of thrombin-induced platelet aggregation in rabbit plasma at 50 uM preincubated 3 mins before addition of thrombin by turbidimetric method; assay type: functional, Oryctolagus cuniculus; set-up: scale not given: the % may be the effect or the level left
[8] = test system: Platelet; assay: Inhibition of arachidonic acid-induced platelet aggregation in rabbit plasma at 50 uM preincubated 3 mins before addition of thrombin by turbidimetric method; assay type: functional, Oryctolagus cuniculus; set-up: scale not given: the % may be the effect or the level left
[9] = test system: Platelet; assay: Inhibition of collagen-induced platelet aggregation in rabbit plasma at 50 uM preincubated 3 mins before addition of thrombin by turbidimetric method; assay type: functional, Oryctolagus cuniculus; set-up: scale not given: the % may be the effect or the level left
[10] = test system: Platelet; assay: Inhibition of platelet activating factor-induced platelet aggregation in rabbit plasma at 50 uM preincubated 3 mins before addition of thrombin by turbidimetric method; assay type: functional, Oryctolagus cuniculus; set-up: scale not given: the % may be the effect or the level left
[11] = test system: Aorta; assay: Inhibition of Ca2+-induced Wistar rat thoracic aorta contraction at 150 uM in high K+ medium pretreated 15 mins before addition of Ca2+ and K+ relative to control; assay type: functional; set-up: scale not given: the % may be the effect or the level left
[12] = test system: Aorta; assay: Inhibition of noradrenaline-induced Wistar rat thoracic aorta phasic contraction in high K+ medium at 150 uM pretreated 15 mins before addition of Ca2+ and K+ relative to control; assay type: functional; set-up: scale not given: the % may be the effect or the level left
[13] = test system: Aorta; assay: Inhibition of noradrenaline-induced Wistar rat thoracic aorta tonic contraction in high K+ medium at 150 uM pretreated 15 mins before addition of Ca2+ and K+ relative to control; assay type: functional; set-up: scale not given: the % may be the effect or the level left
[14] = test system: Platelet; assay: Inhibition of arachidonic acid-induced platelet aggregation in rabbit plasma at 150 uM preincubated 3 mins before addition of thrombin by turbidimetric method; assay type: functional, Oryctolagus cuniculus; set-up: scale not given: the % may be the effect or the level left
[15] = test system: Platelet; assay: Inhibition of arachidonic acid-induced platelet aggregation in rabbit plasma at 60 uM preincubated 3 mins before addition of thrombin by turbidimetric method; assay type: functional, Oryctolagus cuniculus; set-up: scale not given: the % may be the effect or the level left
[16] = test system: Platelet; assay: Inhibition of arachidonic acid-induced platelet aggregation in rabbit plasma at 30 uM preincubated 3 mins before addition of thrombin by turbidimetric method; assay type: functional, Oryctolagus cuniculus; set-up: scale not given: the % may be the effect or the level left
[17] = test system: Platelet; assay: Inhibition of arachidonic acid-induced platelet aggregation in rabbit plasma at 15 uM preincubated 3 mins before addition of thrombin by turbidimetric method; assay type: functional, Oryctolagus cuniculus; set-up: scale not given: the % may be the effect or the level left
[18] = test system: Platelet; assay: Inhibition of arachidonic acid-induced platelet aggregation in rabbit plasma preincubated 3 mins before addition of thrombin by turbidimetric method; conditions: Oryctolagus cuniculus
[19] = test system: Aorta; assay: Inhibition of Ca2+-induced Wistar rat thoracic aorta contraction at 300 uM in high K+ medium pretreated 15 mins before addition of Ca2+ and K+ relative to control; assay type: functional; set-up: scale not given: the % may be the effect or the level left
[20] = test system: Aorta; assay: Inhibition of Ca2+-induced Wistar rat thoracic aorta contraction at 90 uM in high K+ medium pretreated 15 mins before addition of Ca2+ and K+ relative to control; assay type: functional; set-up: scale not given: the % may be the effect or the level left
[21] = test system: Aorta; assay: Inhibition of Ca2+-induced Wistar rat thoracic aorta contraction at 30 uM in high K+ medium pretreated 15 mins before addition of Ca2+ and K+ relative to control; assay type: functional; set-up: scale not given: the % may be the effect or the level left
[22] = test system: Aorta; assay: Inhibition of Ca2+-induced Wistar rat thoracic aorta contraction in high K+ medium pretreated 15 mins before addition of Ca2+ and K+
[23] = test system: Aorta; assay: Inhibition of noradrenaline-induced Wistar rat thoracic aorta phasic contraction in high K+ medium at 300 uM pretreated 15 mins before addition of Ca2+ and K+ relative to control; assay type: functional; set-up: scale not given: the % may be the effect or the level left
[24] = test system: Aorta; assay: Inhibition of noradrenaline-induced Wistar rat thoracic aorta phasic contraction in high K+ medium at 90 uM pretreated 15 mins before addition of Ca2+ and K+ relative to control; assay type: functional; set-up: scale not given: the % may be the effect or the level left
[25] = test system: Aorta; assay: Inhibition of noradrenaline-induced Wistar rat thoracic aorta phasic contraction in high K+ medium at 30 uM pretreated 15 mins before addition of Ca2+ and K+ relative to control; assay type: functional; set-up: scale not given: the % may be the effect or the level left
[26] = test system: Aorta; assay: Inhibition of noradrenaline-induced Wistar rat thoracic aorta phasic contraction in high K+ medium at 9 uM pretreated 15 mins before addition of Ca2+ and K+ relative to control; assay type: functional; set-up: scale not given: the % may be the effect or the level left
[27] = test system: Aorta; assay: Inhibition of noradrenaline-induced Wistar rat thoracic aorta tonic contraction in high K+ medium at 300 uM pretreated 15 mins before addition of Ca2+ and K+ relative to control; assay type: functional; set-up: scale not given: the % may be the effect or the level left
[28] = test system: Aorta; assay: Inhibition of noradrenaline-induced Wistar rat thoracic aorta tonic contraction in high K+ medium at 90 uM pretreated 15 mins before addition of Ca2+ and K+ relative to control; assay type: functional; set-up: scale not given: the % may be the effect or the level left
[29] = test system: Aorta; assay: Inhibition of noradrenaline-induced Wistar rat thoracic aorta tonic contraction in high K+ medium at 30 uM pretreated 15 mins before addition of Ca2+ and K+ relative to control; assay type: functional; set-up: scale not given: the % may be the effect or the level left
[30] = test system: Aorta; assay: Inhibition of noradrenaline-induced Wistar rat thoracic aorta tonic contraction in high K+ medium at 9 uM pretreated 15 mins before addition of Ca2+ and K+ relative to control; assay type: functional; set-up: scale not given: the % may be the effect or the level left
[31] = test system: Aorta; assay: Inhibition of noradrenaline-induced Wistar rat thoracic aorta tonic contraction in high K+ medium pretreated 15 mins before addition of Ca2+ and K+ relative to control
[32] = test system: Aorta; assay: Inhibition of noradrenaline-induced Wistar rat thoracic aorta phasic contraction in high K+ medium pretreated 15 mins before addition of Ca2+ and K+ relative to control

Question: O=c1cc(-c2ccc(O)cc2)oc2cc(O)c([C@@H]3O[C@H](CO[C@@H]4O[C@H](CO)[C@@H](O)[C@H](O)[C@H]4O)[C@@H](O)[C@H](O)[C@H]3O)c(O)c12 was tested. Which Activity [1] did it give?
Answer: 87.4%

Question: What about the Activity [2] of the same molecule?
Answer: 84.9%

Question: What about the Activity [3] of the same molecule?
Answer: 85.6%

Question: And the Activity [4]?
Answer: 84.6%

Question: How did the Activity [5] turn out when CC(=O)OC[C@H]1O[C@@H](OC[C@H]2O[C@@H](c3c(OC(C)=O)cc4oc(-c5ccc(OC(C)=O)c(OC(C)=O)c5)cc(=O)c4c3OC(C)=O)[C@H](OC(C)=O)[C@@H](OC(C)=O)[C@@H]2OC(C)=O)[C@H](OC(C)=O)[C@@H](OC(C)=O)[C@@H]1OC(C)=O was run?
Answer: 79.9%

Question: And the Activity [6]?
Answer: 80.5%

Question: With O=c1cc(-c2ccc(O)c(O)c2)oc2cc(O)c([C@@H]3O[C@H](CO[C@@H]4O[C@H](CO)[C@@H](O)[C@H](O)[C@H]4O)[C@@H](O)[C@H](O)[C@H]3O)c(O)c12 as the molecule, how does the Activity [1] read?
Answer: 85.7%

Question: And the Activity [2]?
Answer: 83.3%

Question: What about the Activity [3] of the same molecule?
Answer: 85.4%

Question: What about the Activity [4] of the same molecule?
Answer: 83.5%

Question: CC(=O)Oc1ccccc1C(=O)O [ASPIRIN] was tested. Which Activity [7] did it give?
Answer: 91.9%

Question: What about the Activity [8] of the same molecule?
Answer: 0%

Question: What about the Activity [9] of the same molecule?
Answer: 85.4%

Question: And the Activity [10]?
Answer: 90.5%

Question: For O=c1cc(-c2ccc(O)c(O)c2)oc2cc(O[C@@H]3O[C@H](CO)[C@@H](O)[C@H](O)[C@H]3O)cc(O)c12 [GALUTEOLIN], which Activity [1] is on record?
Answer: 87%

Question: What about the Activity [2] of the same molecule?
Answer: 80.2%

Question: And the Activity [3]?
Answer: 80.5%

Question: And the Activity [4]?
Answer: 71.9%

Question: What about the Activity [11] of the same molecule?
Answer: 93.4%

Question: What about the Activity [12] of the same molecule?
Answer: 84.5%

Question: And the Activity [13]?
Answer: 88.2%

Question: With CC(=O)OC[C@H]1O[C@@H](c2c(OC(C)=O)cc3oc(-c4ccc(OC(C)=O)c(OC(C)=O)c4)cc(=O)c3c2OC(C)=O)[C@H](OC(C)=O)[C@@H](OC(C)=O)[C@@H]1OC(C)=O [ISOORIENTIN PERACETATE] as the molecule, how does the Activity [1] read?
Answer: 79%

Question: What about the Activity [2] of the same molecule?
Answer: 72.4%

Question: And the Activity [3]?
Answer: 68.6%

Question: And the Activity [4]?
Answer: 74.7%

Question: Which Activity [1] does the source give for O=c1cc(-c2ccc(O)c(O)c2)oc2cc(O)c([C@@H]3O[C@H](CO)[C@@H](O)[C@H](O)[C@H]3O)c(O)c12 [ISOORIENTIN] here?
Answer: 85.5%

Question: And the Activity [2]?
Answer: 66.9%

Question: And the Activity [3]?
Answer: 60.8%

Question: What about the Activity [4] of the same molecule?
Answer: 77.1%

Question: What about the Activity [11] of the same molecule?
Answer: 106%

Question: What about the Activity [12] of the same molecule?
Answer: 91.7%

Question: And the Activity [13]?
Answer: 86.6%

Question: O=c1cc(-c2ccc(O)cc2)oc2cc(O)c([C@@H]3O[C@H](CO)[C@@H](O)[C@H](O)[C@H]3O)c(O)c12 [ISOVITEXIN] was tested. Which Activity [1] did it give?
Answer: 36.5%

Question: And the Activity [2]?
Answer: 85.1%

Question: And the Activity [3]?
Answer: 84.7%

Question: And the Activity [4]?
Answer: 83.9%

Question: With O=c1cc(-c2ccc(O)c(O)c2)oc2cc(O)cc(O)c12 [LUTEOLIN] as the molecule, how does the Activity [1] read?
Answer: 34.7%

Question: And the Activity [2]?
Answer: 0%

Question: And the Activity [14]?
Answer: 0%

Question: And the Activity [15]?
Answer: 20.5%

Question: What about the Activity [16] of the same molecule?
Answer: 53%

Question: And the Activity [17]?
Answer: 79.2%

Question: And the Activity [3]?
Answer: 2.8%

Question: And the Activity [4]?
Answer: 53%

Question: What about the pIC50 [18] of the same molecule?
Answer: 4.36

Question: What about the Activity [19] of the same molecule?
Answer: 28.6%

Question: And the Activity [20]?
Answer: 49.9%

Question: And the Activity [21]?
Answer: 69.5%

Question: What about the pIC50 [22] of the same molecule?
Answer: 3.81

Question: And the Activity [23]?
Answer: 14.9%

Question: And the Activity [24]?
Answer: 29.3%

Question: What about the Activity [25] of the same molecule?
Answer: 64.7%

Question: What about the Activity [26] of the same molecule?
Answer: 92.8%

Question: What about the Activity [27] of the same molecule?
Answer: 22.9%

Question: What about the Activity [28] of the same molecule?
Answer: 32.6%

Question: What about the Activity [29] of the same molecule?
Answer: 52.3%

Question: What about the Activity [30] of the same molecule?
Answer: 99.2%

Question: And the pIC50 [31]?
Answer: 4.14

Question: And the pIC50 [32]?
Answer: 4.17
